What was measured:
[1] = xn = mol fraction of the nth substance listed; settings: 100 kPa, Liquid, x1 = 1; for mass density: Vibrating tube method; for viscosity: Falling or rolling sphere viscometry
[2] = refractive index (Na D-line) (dimensionless); xn = mol fraction of the nth substance listed; settings: 100 kPa, Liquid, Standard Abbe refractometry, x1 = 1
[3] = 100 kPa; for viscosity: Falling or rolling sphere viscometry; for mass density: Vibrating tube method
[4] = refractive index (Na D-line) (dimensionless); settings: 100 kPa, Standard Abbe refractometry

O [water] + OCCO
Settings	mass density, [1] [kg/m3]	refractive index, [2]	viscosity, [1] [mPa·s]
288.15 K	999.2	1.3338	–
293.15 K	998.3	1.3331	0.949
298.15 K	–	1.3325	0.843
303.15 K	–	1.3318	0.755
308.15 K	–	1.3312	–
313.15 K	–	1.3305	–
318.15 K	990.8	1.3299	–

O [water] + OCCCCO
Settings	mass density, [1] [kg/m3]	refractive index, [2]	viscosity, [1] [mPa·s]
288.15 K	999.2	1.3338	–
293.15 K	998.3	1.3331	0.949
298.15 K	–	1.3325	0.843
303.15 K	–	1.3318	0.755
308.15 K	–	1.3312	–
313.15 K	–	1.3305	–
318.15 K	990.8	1.3299	–

O [water] + OCCCO
Settings	mass density, [1] [kg/m3]	refractive index, [2]	viscosity, [1] [mPa·s]
288.15 K	999.2	1.3338	–
293.15 K	998.3	1.3331	0.949
298.15 K	–	1.3325	0.843
303.15 K	–	1.3318	0.755
308.15 K	–	1.3312	–
313.15 K	–	1.3305	–
318.15 K	990.8	1.3299	–

OCCO [1,2-ethanediol]
Liquid
Settings	mass density, [3] [kg/m3]	refractive index, [4]	viscosity, [3] [mPa·s]
288.15 K	–	1.432	–
293.15 K	1113.3	1.4306	21.13
298.15 K	–	1.4294	17.24
303.15 K	1106.8	1.4282	14.23
308.15 K	–	1.4269	–
313.15 K	1099.1	1.4257	–
318.15 K	–	1.4244	–

OCCCO [propan-1,3-diol]
Liquid
Settings	mass density, [3] [kg/m3]	refractive index, [4]	viscosity, [3] [mPa·s]
288.15 K	1056.2	1.4407	–
293.15 K	1053.2	1.4393	51.55
298.15 K	1049.9	1.438	40.8
303.15 K	1046.7	1.4367	32.74
308.15 K	1043.5	1.4353	–
313.15 K	1040.4	1.434	–
318.15 K	1037.9	1.4327	–

OCCCCO [1,4-butanediol]
Metastable liquid
Settings	mass density, [3] [kg/m3]	refractive index, [4]	viscosity, [3] [mPa·s]
288.15 K	1018.6	1.447	–
293.15 K	1016.3	1.4455	90.7
298.15 K	1012.9	1.4441	69.89
303.15 K	1009.9	1.4426	55.24
308.15 K	1006.9	1.4412	–
313.15 K	1003.2	1.4398	–
318.15 K	1000.8	1.4384	–

O [water] + OCCCCCO
Settings	mass density, [1] [kg/m3]	refractive index, [2]	viscosity, [1] [mPa·s]
288.15 K	999.2	1.3338	–
293.15 K	998.3	1.3331	0.949
298.15 K	–	1.3325	0.843
303.15 K	–	1.3318	0.755
308.15 K	–	1.3312	–
313.15 K	–	1.3305	–
318.15 K	990.8	1.3299	–

OCCCCCO [1,5-pentanediol]
Liquid
Settings	mass density, [3] [kg/m3]	refractive index, [4]	viscosity, [3] [mPa·s]
288.15 K	992.2	1.4503	–
293.15 K	989.2	1.449	118.7
298.15 K	986.2	1.4478	86.79
303.15 K	983.2	1.4466	68.3
308.15 K	980.3	1.4454	–
313.15 K	977.4	1.4441	–
318.15 K	974.8	1.443	–

O [water]
Liquid
Settings	mass density, [3] [kg/m3]	refractive index, [4]	viscosity, [3] [mPa·s]
288.15 K	999.2	1.3338	–
293.15 K	998.3	1.3331	0.949
298.15 K	–	1.3325	0.843
303.15 K	–	1.3318	0.755
308.15 K	–	1.3312	–
313.15 K	–	1.3305	–
318.15 K	990.8	1.3299	–

Source: the NIST ThermoML archive (doi:10.1021/acs.jced.6b00526)
